Data reported in patent US20230365589A1, “NOVEL AMINE DERIVATIVES” (Sumitomo Pharma Co., Ltd., priority 2020, published 2023).
Like-named read-outs stand apart in the source and are kept apart here.

Columns and labels:
Assay type in all cases: biochemical
DYRK3 = biological target: T1, DYRK3 (Homo sapiens, UniProt O43781); experiment: Inhibition test on activity of DYRK family, mobility shift assay (MSA): DYRK3
T1 construct: purchased Carna Biosciences, Inc. 04-133
T1 sequence (O43781 1-568 isoform O43781-2): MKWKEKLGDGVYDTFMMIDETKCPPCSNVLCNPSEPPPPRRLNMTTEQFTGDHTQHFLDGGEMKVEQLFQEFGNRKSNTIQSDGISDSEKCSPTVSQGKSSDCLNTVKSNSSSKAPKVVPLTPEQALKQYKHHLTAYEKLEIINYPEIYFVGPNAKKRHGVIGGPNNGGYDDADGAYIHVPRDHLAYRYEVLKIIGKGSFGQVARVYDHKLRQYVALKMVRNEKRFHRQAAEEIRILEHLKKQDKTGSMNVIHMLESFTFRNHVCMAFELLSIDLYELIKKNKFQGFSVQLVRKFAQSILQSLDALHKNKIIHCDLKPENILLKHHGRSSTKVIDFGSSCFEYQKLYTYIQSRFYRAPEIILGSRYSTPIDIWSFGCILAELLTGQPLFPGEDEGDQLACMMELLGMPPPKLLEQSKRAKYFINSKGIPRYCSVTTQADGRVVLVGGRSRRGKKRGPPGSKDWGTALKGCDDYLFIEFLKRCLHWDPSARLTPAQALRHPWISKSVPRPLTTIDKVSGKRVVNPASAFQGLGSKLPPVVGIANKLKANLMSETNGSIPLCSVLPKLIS
Procedure: (§1) [Inhibition Test on Activity of DYRK Family (DYRK1A, DYRK1B, DYRK2, and DYRK3)]
(§2) The kinase activity was measured by mobility shift assay (MSA) method using QuickScout Screening Assist™ MSA (commercially available kit manufactured by Carna Biosciences, Inc.). The substrate of the kinase reaction used was an FITC-labeled DYRKtide peptide included in the kit. An assay buffer [20 mM HEPES, 0.01% Triton X-100™, 2 mM dithiothreitol, pH 7.5]was used to create a substrate mixture solution with a substrate (4 μM), MgCl2(20 mM), and ATP (DYRK1A: 100 μM; DYRK1B: 200 μM; DYRK2: 40 μM; and DYRK3: 20 μM). In addition, kinases (DYRK1A: manufactured by Carna Biosciences, Inc., Cat. No. 04-130; DYRK1B: manufactured by Carna Biosciences, Inc., Cat. No. 04-131; DYRK2; manufactured by Carna Biosciences, Inc., Cat. No. 04-132; and DYRK3; manufactured by Carna Biosciences, Inc., Cat. No. 04-133) were diluted with the assay buffer to prepare enzyme solutions (DYRK1A: 0.2 ng/μL; DYRK1B: 0.08 ng/μL; DYRK2: 0.04 ng/μL; and DYRK3: 0.25 ng/μL). The 10 mM solution of the test compound in DMSO was further diluted with DMSO to 10 levels of the concentration (0.00003 mM, 0.0001 mM, 0.0003 mM, 0.001 mM, 0.003 mM, 0.01 mM, 0.03 mM, 0.1 mM, 0.3 mM, and 1 mM), each of which was subjected to 25-fold dilution with the assay buffer to obtain a drug solution (4% DMSO solution). 5 μL of the drug solution or a control solution (4% DMSO-assay buffer), 5 μL of the substrate mixture solution, and 10 μL of the enzyme solution were mixed in the wells of a polypropylene 384-well plate and allowed to react at room temperature for 1 hour, and then the reaction was quenched by adding 60 μL of the termination buffer included in the kit. Subsequently, the quantities of the substrates (S) and the phosphorylated substrate (P) in the reaction solution were measured using LabChip EZ Reader II system (manufactured by Caliper Life Sciences) according to the protocol of the assay kit.
(§3) The heights of the peaks of the “substrate” and the “phosphorylated substrate” were expressed as S and P, respectively, and a blank containing the assay buffer instead of the enzyme solution was also measured.
(§4) The inhibition rate (%) of the test compound was calculated according to the following equation:
(§5) Inhibition rate (%)=(1−(C−A)/(B−A))×100 • wherein, A, B, and C represent P/(P+S) of the blank well, P/(P+S) of the control solution well, and P/(P+S) of the compound-containing well, respectively.
(§6) The IC50 value was calculated via a regression analysis of the inhibition rate and the test compound concentration (logarithmic value).
(§7) The inhibiting activities of representative compounds of the present invention are shown against DYRK1A, DYRK1B, DYRK2, and DYRK3 in Tables.

DYRK1A = biological target: T2, DYRK1A (Homo sapiens, UniProt Q13627); experiment: Inhibition test on activity of DYRK family, mobility shift assay (MSA): DYRK1A
T2 construct: purchased Carna Biosciences, Inc. 04-130
Procedure: as §1, §2, §3, §4, §5, §6

DYRK2 = biological target: T3, DYRK2 (Homo sapiens, UniProt Q92630); experiment: Inhibition test on activity of DYRK family, mobility shift assay (MSA): DYRK2
T3 construct: purchased Carna Biosciences, Inc. 04-132
T3 sequence (Q92630 74-601 limits assumed): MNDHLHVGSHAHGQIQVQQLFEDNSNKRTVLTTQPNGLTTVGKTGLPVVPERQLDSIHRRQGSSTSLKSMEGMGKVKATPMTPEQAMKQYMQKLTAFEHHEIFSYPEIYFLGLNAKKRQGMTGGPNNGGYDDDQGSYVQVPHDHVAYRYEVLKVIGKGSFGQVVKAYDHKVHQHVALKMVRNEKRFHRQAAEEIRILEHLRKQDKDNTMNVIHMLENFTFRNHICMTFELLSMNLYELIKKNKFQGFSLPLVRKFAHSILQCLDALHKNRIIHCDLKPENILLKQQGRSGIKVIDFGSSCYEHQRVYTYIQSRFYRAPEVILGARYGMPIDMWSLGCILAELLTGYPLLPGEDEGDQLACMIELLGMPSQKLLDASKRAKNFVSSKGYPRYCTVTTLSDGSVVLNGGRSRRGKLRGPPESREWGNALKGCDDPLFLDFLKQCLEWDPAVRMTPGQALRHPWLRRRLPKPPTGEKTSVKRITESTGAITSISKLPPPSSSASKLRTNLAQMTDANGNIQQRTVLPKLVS
Procedure: as §1, §2, §3, §4, §5, §6, §7

[1] = MSA, FITC-labeled DYRKtide peptide, ATP 20 μM, read-out: Inhibitory activity DYRK 3 (IC50 class)
[2] = MSA, FITC-labeled DYRKtide peptide, ATP 100 μM, read-out: Inhibitory activity DYRK 1A (IC50 class)
[3] = MSA, FITC-labeled DYRKtide peptide, ATP 40 μM, read-out: Inhibitory activity DYRK 2 (IC50 class)
[4] = read-out: Inhibitory activity DYRK 3
[5] = read-out: Inhibitory activity DYRK 1A
[6] = read-out: Inhibitory activity DYRK 2

| IC50 (DYRK3; [1]) [nM] | IC50 (DYRK1A; [2]) [nM] | IC50 (DYRK2; [3]) [nM] | IC50 (DYRK3; [4]) [nM] | IC50 (DYRK1A; [5]) [nM] | IC50 (DYRK2; [6]) [nM] | Compound |
| --- | --- | --- | --- | --- | --- | --- |
| 100 to 1000 | 10 to 100 | ≥ 1000 | – | – | – | CN1CC[C@@H]2[C@H](C1)NC(=O)N2c1nc2c3c(ccc2s1)OCCO3 (racemic) [Example 77, rac-(3aR,7aS)-1-(7,8-dihydro[1,4]dioxino[2,3-e][1,3]benzothiazol-2-yl)-5-methyloctahydro-2H-imidazo[4,5-c]pyridin-2-one] |
| 10 to 100 | 10 to 100 | 100 to 1000 | – | – | – | O=C1NC2CNCCC2N1c1nc2c3c(ccc2s1)OCC3 (stereo not drawn) [Example 2] |
| – | – | – | 100 to 1000 | 10 to 100 | ≥ 1000 | N#CCN1CCC[C@@H]2NC(=O)N(c3nc4c5c(ccc4s3)OCC5)[C@@H]2C1 (racemic) [Example 106, rac-[(3aR,8aS)-3-(7,8-dihydrofuro[3,2-e][1,3]benzothiazol-2-yl)-2-oxooctahydroimidazo[4,5-c]azepin-5(1H)-yl]acetonitrile] |
| ≥ 1000 | 10 to 100 | ≥ 1000 | – | – | – | O=C1N[C@H]2CCN(C3CCC3)C[C@H]2N1c1nc2c3c(ccc2s1)OCC3 (racemic) [Example 72, rac-(3aR,7aS)-5-cyclobutyl-3-(7,8-dihydrofuro[3,2-e][1,3]benzothiazol-2-yl)octahydro-2H-imidazo[4,5-c]pyridin-2-one] |
| 10 to 100 | 10 to 100 | 100 to 1000 | – | – | – | O=C1N[C@@H]2CCNC3(CC3)[C@H]2N1c1nc2c3c(ccc2s1)OCC3 [Example 48] |
| 10 to 100 | < 10 | 10 to 100 | – | – | – | O=C1N[C@H]2COC[C@H]2N1c1nc2c3c(ccc2s1)OCC3 [Example 65, (3aR,6aS)-1-(7,8-dihydrofuro[3,2-e][1,3]benzothiazol-2-yl)tetrahydro-1H-furo[3,4-d]imidazol-2(3H)-one] |
| – | – | – | ≥ 1000 | 10 to 100 | 100 to 1000 | C[C@@H]1NC(=O)N(c2nc3c4c(ccc3s2)OCC4)[C@@H]1CN1CC[C@H](F)C1 [Example 115, (4S,5R)-1-(7,8-dihydrofuro[3,2-e][1,3]benzothiazol-2-yl)-5-{[(3S)-3-fluoropyrrolidin-1-yl]methyl}-4-methylimidazolidin-2-one] |
| ≥ 1000 | 10 to 100 | ≥ 1000 | – | – | – | O=C1N[C@H]2CCCN(C3COC3)C[C@H]2N1c1nc2c3c(ccc2s1)OCO3 (racemic) [Example 86, rac-(3aR,8aS)-3-(2H-[1,3]dioxolo[4,5-e][1,3]benzothiazol-7-yl)-5-(oxetan-3-yl)octahydroimidazo[4,5-c]azepin-2(1H)-one] |
| ≥ 1000 | < 10 | ≥ 1000 | – | – | – | O=C1NC2CCN(C3CC3)CC2N1c1nc2c3c(ccc2s1)OCO3 (stereo not drawn) [Example 32] |
| 100 to 1000 | 100 to 1000 | ≥ 1000 | – | – | – | CN1CC[C@@H]2[C@@H](NC(=O)N2c2nc3c4c(ccc3s2)OCC4)C12CC2 [Example 68] |
| – | – | – | 100 to 1000 | 10 to 100 | 100 to 1000 | CO[C@H]1C[C@@H]2[C@H](CO1)NC(=O)N2c1nc2c3c(ccc2s1)OCC3 [Example 129, (3aR,6R,7aR)-1-(7,8-dihydrofuro[3,2-e][1,3]benzothiazol-2-yl)-6-methoxyhexahydropyrano[3,4-d]imidazol-2(3H)-one] |
| – | – | – | 100 to 1000 | 10 to 100 | ≥ 1000 | C#CCN1C[C@@H]2NC(=O)N(c3nc4c5c(ccc4s3)OCC5)[C@@H]2C1 (racemic) [Example 102, rac-(3aR,6aS)-1-(7,8-dihydrofuro[3,2-e][1,3]benzothiazol-2-yl)-5-(2-propyn-1-yl)hexahydropyrrolo[3,4-d]imidazol-2(1H)-one] |
| – | – | – | ≥ 1000 | 10 to 100 | ≥ 1000 | C#CCN1CCC[C@@H]2NC(=O)N(c3nc4c5c(ccc4s3)OCC5)[C@@H]2C1 (racemic) [Example 105, rac-(3aR,8aS)-3-(7,8-dihydrofuro[3,2-e][1,3]benzothiazol-2-yl)-5-(2-propyn-1-yl)octahydroimidazo[4,5-c]azepin-2(1H)-one] |
| ≥ 1000 | 100 to 1000 | ≥ 1000 | – | – | – | COCCN1CCC2C(C1)NC(=O)N2c1nc2c3c(ccc2s1)OCC3 (stereo not drawn) [Example 10] |
| – | – | – | ≥ 1000 | 100 to 1000 | ≥ 1000 | C[C@@H]1C[C@@H]2NC(=O)N(c3nc4c5c(ccc4s3)OCC5)[C@@H]2CN1C [Example 96] |
| – | – | – | 100 to 1000 | 10 to 100 | ≥ 1000 | C[C@H]1C[C@@H]2[C@H](CN1C)NC(=O)N2c1nc2c3c(ccc2s1)OCC3 [Example 93, (3aS,6S,7aR)-1-(7,8-dihydrofuro[3,2-e][1,3]benzothiazol-2-yl)-5,6-dimethyloctahydro-2H-imidazo[4,5-c]pyridin-2-one] |
| 100 to 1000 | 100 to 1000 | ≥ 1000 | – | – | – | O=C1N[C@H]2[C@H](F)CNC[C@H]2N1c1nc2c3c(ccc2s1)OCC3 [Example 50] |
| – | – | – | ≥ 1000 | 10 to 100 | ≥ 1000 | C[C@@H]1NC(=O)N(c2nc3c4c(ccc3s2)OCC4)[C@@H]1CN1CCC(F)(F)C1 [Example 117, (4S,5R)-5-[(3,3-difluoropyrrolidin-1-yl)methyl]-1-(7,8-dihydrofuro[3,2-e][1,3]benzothiazol-2-yl)-4-methylimidazolidin-2-one] |
| – | – | – | 100 to 1000 | < 10 | ≥ 1000 | N#CCN1CC[C@@H]2NC(=O)N(c3nc4c5c(ccc4s3)OCC5)[C@@H]2C1 (single isomer, unassigned) [Example 112] |
| – | – | – | 100 to 1000 | 100 to 1000 | 100 to 1000 | O=C1N[C@@H]2COCC[C@H]2N1c1nc2c3c(ccc2s1)OCC3 [Example 126] |
| ≥ 1000 | < 10 | ≥ 1000 | – | – | – | O=C1N[C@@H]2CCN(C3CC3)C[C@@H]2N1c1nc2c3c(ccc2s1)OCCO3 (relative stereo) [Example 31, cis-5-Cyclopropyl-3-(7,8-dihydro[1,4]dioxino[2,3-e][1,3]benzothiazol-2-yl)octahydro-2H-imidazo[4,5-c]pyridin-2-one] |
